Holding throughout (format): in vivo
The test system of data set [1] is laser-induced CNV in C57BL/6 mice. The experiment in a line: Laser-induced CNV in C57/BL6 mice, fluorescein angiography. The method, then: Adult 12 weeks old female C57BL/6 mice were used to generate the laser-induced CNV model. Mice were anesthetized by intraperitoneal ketamine hydrochloride (25 mg/kg) and xylazine (10 mg/kg) and their pupils dilated by topical tropicamide 1%. Laser-photocoagulation was performed a diode laser (680 nm; 210 mW power, 100 ms duration, 100 […]) under direct vision using a hand-held cover slide as a contact lens and were localized to the 2, 10, and 6 o'clock positions of the posterior pole of the retina in both eyes. These laser settings consistently generate a subretinal gas bubble which strongly correlates with laser-induced rupture of Bruch's membrane and successful induction of CNV. Only lesions in which a bubble is formed were included in the analysis. Fluorescein angiography using a Kowa Genesis small animal fundus camera was conducted at 1 week and 2 weeks following induction of CNV. The size of CNV lesions were quantified by digital image analysis the mean area of hyperfluorescence per lesion during the early phase (90 seconds post fluorescein injection). The pupils were dilated by topical tropicamide 1% and fluorescein sodium 2% administered by intraperitoneal injection (0.2 ml). Eyes were excluded if there was significant cataract or keratopathy that could affect laser energy delivery or angiography.
Adult 12 weeks old female C57BL/6 mice were used to generate the laser-induced CNV (3 CNV lesions per mouse retina) model using laser photocoagulation and puncture of Bruch's membrane.
The statistical analysis conducted here is stringent in that number of observations are related to the number of animals treated whereas in most other studies (conducted in the wider literature) using this laser-induced model each lesion (3 CNV lesions per mouse retina) are regarded as independent observations. […] However it is clear that in the case of orally dosed pazopanib either statistical approach would have yielded a robust effect or as such the effect of CCR3 inhibitor '994 in this model appears weaker than orally dosed pazopanib.

In data set [2] the target is T1, CCR3 (Mus musculus, UniProt P51678).
T1 construct: endogenous in cells; host or cells: juvenile mice in vivo; CCR3-bearing cells, mainly eosinophils
T1 sequence (P51678 1-359): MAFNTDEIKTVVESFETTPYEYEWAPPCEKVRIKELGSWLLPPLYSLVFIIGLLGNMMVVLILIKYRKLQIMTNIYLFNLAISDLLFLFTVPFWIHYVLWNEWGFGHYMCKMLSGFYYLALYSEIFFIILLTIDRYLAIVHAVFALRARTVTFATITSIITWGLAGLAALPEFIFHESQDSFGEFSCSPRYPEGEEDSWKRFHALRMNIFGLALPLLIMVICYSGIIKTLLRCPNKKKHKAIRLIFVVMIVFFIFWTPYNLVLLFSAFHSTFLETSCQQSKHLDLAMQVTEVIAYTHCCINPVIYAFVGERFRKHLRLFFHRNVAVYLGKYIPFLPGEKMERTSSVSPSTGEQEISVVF
The experiment in a line: Fractional CCR3 receptor occupancy calculated from blood concentrations in juvenile mice. The method, then:
Following dosing of 8 mg/kg i.p QD CCR3 inhibitor '994 in juvenile mice to mimic exposure effects in JR5558 mice, blood concentration at 24 hrs was calculated for 2 mg/kg i.p, 8 mg.kg i.p and 30 mg/kg i.p. doses by projecting the log linear phase of the PK profile. Blood drug concentrations were then used to determine fractional receptor occupancy using the Langmuir binding isotherm and the pKi for CCR3 inhibitor '994 (estimated in a mouse eosinophil chemotaxis assay). The receptor occupancy values are small over estimates of the true value as the pKi for CCR3 inhibitor '994 was determined in buffer and not blood. The fractional CCR3 receptor occupancy will largely be due to binding to eosinophils as this is the predominant CCR3 bearing cell population. […] This same group also used very small doses of anti-CCR3 antibodies dosed by intravitreal injection to limit laser-induced CNV in mouse models and these very small doses would have very limited impact of fractional receptor occupancy even if they were able to access the systemic circulation. In addition, topical dosing of CCR3 inhibitor '994 as an eye drop formulation was also efficacious in the JR5558 model. […] It is highly likely however that systemic dosing drives exposure of CCR3 antagonist in the eye and ultimately the effect on disease and the exposure in the eye is likely to be a complex function of the systemic exposure and thus an understanding of the systemic pharmacokinetics driving efficacy may be important in profiling systemic therapies.

Data set [3] in a line: Exposure after oral versus i.p. dosing in mice. The note with it: mouse; oral v i.p.

The text below walks through data of patent US20140335083A1, “METHODS OF TREATMENT AND PREVENTION OF EYE DISEASES” (GLAXO GROUP LIMITED, priority 2011, published 2014).

For `NC(=O)c1ccc(CNC(=O)NC[C@H]2CN(Cc3ccc(Cl)c(Cl)c3)CCO2)cc1` [CCR3 inhibitor '994, 4-[[[[[[(2s)-4-[(3,4-dichlorophenyl)methyl]-2-morpholinyl]methyl]-amino]carbonyl]-amino]methyl]benzamide], the “Ratio of mean lesion sizes” value in data set [1] (Table 1 study, 8 mg/kg po QD v Vehicle, Week 1) is on record as 0.82; in data set [1] (Table 1 study, 8 mg/kg po QD v Vehicle, Week 2), 0.99; in data set [1] (Table 1 study, 30 mg/kg '994 v 20 mg/kg Pazopanib, Week 1) it was 1.47; in data set [1] (Table 1 study, 30 mg/kg '994 v 20 mg/kg Pazopanib, Week 2) it was 2.03; in data set [1] (Table 1 study, 30 mg/kg po QD v Vehicle, Week 1), 0.70; in data set [1] (Table 1 study, 30 mg/kg po QD v Vehicle, Week 2) it was 0.78. Further, the “Ratio of mean lesion sizes” value in data set [1] (Table 2 (second) study, 2 mg/kg po QD v Vehicle, Week 1) stood at 0.93; in data set [1] (Table 2 (second) study, 2 mg/kg po QD v Vehicle, Week 2) it was 0.83; in data set [1] (Table 2 (second) study, 8 mg/kg BID po v Vehicle, Week 1), 0.80; in data set [1] (Table 2 (second) study, 8 mg/kg BID po v Vehicle, Week 2), 0.65; in data set [1] (Table 2 (second) study, 8 mg/kg po QD v Vehicle, Week 1) it was 0.81; in data set [1] (Table 2 (second) study, 8 mg/kg po QD v Vehicle, Week 2), 0.66. The “Ratio of mean lesion sizes” value in data set [1] (Table 2 (second) study, 30 mg/kg '994 v 20 mg/kg Pazopanib, Week 1) is given as 2.05; in data set [1] (Table 2 (second) study, 30 mg/kg '994 v 20 mg/kg Pazopanib, Week 2), 2.16; in data set [1] (Table 2 (second) study, 30 mg/kg po QD v Vehicle, Week 1), 0.62; in data set [1] (Table 2 (second) study, 30 mg/kg po QD v Vehicle, Week 2) it was 0.56. Further, the “fractional CCR3 receptor occupancy” value in data set [2] (2 mg/kg i.p., 24 h trough) was 3.1%; in data set [2] (2 mg/kg i.p., at 8 hours), 97.95%; in data set [2] (8 mg/kg i.p., 24 h trough) it was 11.36%; in data set [2] (8 mg/kg i.p., at 8 hours) it was 99.48%; in data set [2] (30 mg/kg i.p., 24 h trough), 32.45; in data set [2] (30 mg/kg i.p., at 8 hours), 99.86%. The “reduction in exposure, oral dosing as compared to i.p dosing” value in data set [3] amounted to 5 fold.
